# In PMC12670317, “Targeted NAT10 Degradation by PROTAC NP1192 Suppresses Hypoxia-Adaptive Glycolysis and Reinvigorates CD8^+ Effector T‑Cell Function for Synergistic Cancer Immunotherapy” (ACS Central Science, 2025):
# Read-outs that look alike come from different tables or passages of the source.
# Columns and labels:
# [1] = tested on: NP1192^Resist SiHa cells; assay: IC50 and resistance index in NP1192-resistant SiHa cells (CCK-8); type: cell-based, human
# Procedure: We generated Remodelin-resistant (Remodelin^Resist SiHa) and NP1192-resistant (NP1192^Resist SiHa) SiHa CCa cell lines by applying a stepwise dose escalation strategy, as previously described in the literature. To quantitatively assess resistance, we calculated the resistance index for each subline following the established methodologies. Briefly, 3000 cells per well were seeded in 96-well plates and treated with increasing concentrations of Remodelin or NP1192 (0, 10, 50, 100, and 150 μM) for 24 h. Following treatment, 10 μL of CCK-8 reagent was added to each well and incubated for an additional 2 h. Absorbance at 490 nm was measured, and the IC50 values were calculated using GraphPad Prism 9.0. The RI was defined as the ratio of the IC50 in resistant cells to that in parental cells.
# [2] = tested on: U14 cells; assay: Lactic acid, ATP and 2-NBDG uptake assays in U14 cells; type: cell-based, murine; conditions: U14, 20 μM, 36 h
# Procedure: SiHa and U14 cells (2 × 10^5 cells per well) were plated in 6-well plates and cultured in RPMI 1640 medium or DMEM supplemented with 10% FBS and 1% penicillin–streptomycin. After cell adherence, 20 μM NP1192 or DMSO was added and incubated for 36 h, and the assays were performed according to the instruction manuals for the Lactate Assay Kit (Nanjing Jiancheng, China), ATP Assay Kit (Beyotime, China), and 2-NBDG reagent (GlpBio, US). All data analyses were performed via GraphPad Prism 9, and the data are presented as the means ± SEMs.
# [3] = tested on: SiHa cells; assay: Transwell invasion assay in SiHa cells; type: cell-based, human; conditions: pretreated 20 μM 36 h, 12 h
# Procedure: The Transwell chamber was assembled by coating the porous membrane insert in the top compartment with Matrigel to form a layer of extracellular matrix (ECM), and the top compartment was placed into a cell culture plate. NAT10^± SiHa cells and SiHa cells treated with DMSO, Remodelin or NP1192 for 36 h were collected and resuspended in serum-free medium at a density of 10,000 cells/200 μL of medium. Then, the cell suspension was added to the top compartment of the Transwell chamber, and the plate was placed in the incubator for 12 h. After incubation, the cells on the bottom surface of the membrane were fixed and stained. The cells were visualized under a microscope, and the number of cells that migrated through the membrane was determined via ImageJ software.
# [4] = tested on: normal organoids; assay: Normal organoids exposed to NP1192; type: cell-based, human; conditions: following NP1192 exposure
# Procedure: (§1) Organoid culture was performed according to previously established protocols. Briefly, we procured patient-derived tissue samples provided and technically manipulated by Accurate International Biotechnology Co., Ltd. Subsequently, these samples were subjected to mechanical and enzymatic dissociation to disaggregate the tissue into single cells or small clusters, while preserving cellular integrity. Following this initial step, the isolated cells or tissue fragments were embedded within a 3D ECM scaffold, such as Matrigel or collagen. The ECM scaffold served as a supportive substrate, promoting cellular self-organization and mimicking native tissue architecture. Additionally, a precisely formulated cocktail of growth factors, cytokines, and signaling molecules tailored to the specific tissue of interest was meticulously formulated and added to the culture medium to facilitate organoid growth and maintenance.
# [5] = Pharmacokinetic study in male SD rats; type: in vivo; conditions: Sprague-Dawley (SD), rat, plasma; for AUC(0-t): 0–24 h; for MRT last: read-out: MRT(0−t); for MRT inf: read-out: MRT(0−∞)
# Procedure: Male SD rats (180–220 g) were purchased from Beijing Vital River Laboratory Animal Technology Co., Ltd. Blood samples (0.25 mL) were collected from the tail vein at 0.0833, 0.25, 0.5, 1, 2, 4, 6, 8, and 24 h after oral (10 mg/kg) or intravenous (2 mg/kg) administration of compound NP1192. Drug concentrations in the samples were determined by using liquid chromatography–mass spectrometry (LC-MS/MS). The mobile phase consisted of a mixture of solvent A (acetonitrile) and solvent B (formic acid/ultrapure water, 1:1000, v/v). The flow rate of the mobile phase was 0.3 mL/min, and the injection volume was 10 μL.
# [6] = tested on: high-grade serous ovarian carcinoma (OV) patient-derived organoids; assay: ATP-based viability assay in patient-derived organoids, OV; type: cell-based; conditions: Homo sapiens, OV PDOs, read-out: IC50, organoid viability
# Procedure: as §1
# [7] = tested on: HIF-1α; assay: HIF-1α protein level in SiHa cells, Western blot; type: cell-based, human; conditions: 36 h
# Procedure: (§2) RIPA lysis buffer (Beyotime, China) mixed with 1% protease inhibitor (Sigma, US) was added to the cells, and a sample of total protein was obtained and then loaded onto an 8% or 12% polyacrylamide gel. The gel was placed in a buffer solution, and an electric current was applied. The separated proteins were subsequently transferred from the gel onto a PVDF membrane. Next, the membrane was blocked with 5% milk for 1 h to prevent nonspecific antibody binding. The membranes were subsequently incubated with anti-NAT10 (1:1000, Abcam, USA), anti-PD-L1 (1:1000, Proteintech, China), anti-HIF-1α (1:1000, Abmart, China), and anti-β-tubulin (1:1000, Proteintech, China) primary antibodies for 12 h. Afterward, the membrane was sequentially washed with 1× TBST and incubated for 1 h with an antimouse secondary antibody (1:6000, Elabscience, China) or antirabbit secondary antibody (1:6000, Elabscience, China). The target proteins were detected via chemiluminescence with a ChemiDoc MP Imaging System (Bio-Rad, US).
# [8] = tested on: PD-L1; assay: PD-L1 protein level in SiHa cells, Western blot; type: cell-based, human; conditions: 36 h
# Procedure: as §2
# [9] = tested on: HFF-1 cells; assay: Cytotoxicity in nonmalignant HFF-1 cells; type: cell-based, human; conditions: HFF-1 cells with low NAT10 expression
# [10] = Acute toxicity in C57BL/6J mice; conditions: male, mouse, in vivo, ip; C57BL/6J mice, intraperitoneal, 14 days survival
# Procedure: (§3) Six-weeks old C57BL/6J male mice were purchased from Guangzhou Southern Medical University Experimental Animal Technology Development Co. The mice were administered intraperitoneally NP1192 (100, 500, 1000 mg/kg). The survival of mice was monitored for 14 days, consecutively.
# [11] = tested on: C57BL/6J mice; assay: Acute toxicity in C57BL/6J mice; conditions: mouse, in vivo, 1000 mg/kg
# Procedure: as §3
structure (smiles),measurement,setting,value
N#Cc1ccc(-c2csc(N(CCCCCCC(=O)N3CCN(c4cccc5c4C(=O)N(C4CCC(=O)NC4=O)C5=O)CC3)N=C3CCCC3)n2)cc1 (stereo not drawn) [NP1192],resistance index (RI = IC50 resistant/parental SiHa),[1]; 76.2/7.814,9.75
same,IC50,"[1]; Homo sapiens, NP1192^Resist SiHa cells",76.2 µM
same,lactate levels,[2],significantly decreased lactate levels
same,level of ATP production,[2],increased markedly
same,absorbtion rate (glucose analog 2-NBDG),"[2]; Figure 4L, DMSO 9.57",0.80
same,cell invasion,[3],substantially hindered CCa cell invasion
same,architecture and cellular integrity of normal organoids,[4],remained unaltered
same,Cmax,"[5]; iv, i.v. 2 mg/kg",759 ± 134 ng/mL
same,AUC(0-t),"[5]; iv, i.v. 2 mg/kg",365 ± 42.6 ng·h/mL
same,AUC(0-inf),"[5]; iv, i.v. 2 mg/kg",367 ± 43 ng·h/mL
same,Tmax,"[5]; iv, i.v. 2 mg/kg",0.0833 h
same,clearance,"[5]; iv, i.v. 2 mg/kg",91.7 mL/min/kg
same,half-life,"[5]; iv, i.v. 2 mg/kg",0.967 ± 0.214 h
same,MRT last,"[5]; iv, i.v. 2 mg/kg",0.529 ± 0.0268 h
same,MRT inf,"[5]; iv, i.v. 2 mg/kg",0.57 ± 0.0206 h
same,Vd,"[5]; iv, i.v. 2 mg/kg, read-out: Vz",7.6 ± 1.39 L/kg
same,bioavailability,"[5]; oral, p.o. 10 mg/kg vs i.v. 2 mg/kg, read-out: oral bioavailability (F)",1.35%
same,AUC(0-inf),"[5]; po, p.o. 10 mg/kg",29.5 ± 1.59 ng·h/mL
same,Tmax,"[5]; po, p.o. 10 mg/kg",1.67 h
same,half-life,"[5]; po, p.o. 10 mg/kg",2.4 ± 1.15 h
same,MRT last,"[5]; po, p.o. 10 mg/kg",1.56 ± 0.358 h
same,MRT inf,"[5]; po, p.o. 10 mg/kg",2.85 ± 0.862 h
same,Cmax,"[5]; po, p.o. 10 mg/kg",13.9 ± 6.42 ng/mL
same,AUC(0-t),"[5]; po, p.o. 10 mg/kg",24.7 ± 1.11 ng·h/mL
same,IC50,[6],9.95 µM
same,HIF-1α protein levels,[7],decreased HIF-1α protein levels
same,PD-L1 protein level,[8],pronounced downregulation of PD-L1
same,cytotoxicity in nonmalignant cells,[9],minimal cytotoxicity
same,LD50 at 14 days,[10],> 1000 mg/kg
same,tolerability in acute toxicity test,[11],well-tolerated
